Measurements as given in PubChem BioAssay (NCI).
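96-well plates; 48 h exposure; 5 concentrations. Endpoints by linear interpolation between flanking doses. Not reached: highest tested concentration assigned. Abbreviation: GI50, concentration required for 50% inhibition of growth. TGI denotes the concentration required for complete inhibition of growth.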

What was measured:
Assay in all cases: NCI anticancer screen, dose series, 48 h
786-0 renal = test system: 786-0 renal
A498 renal = test system: A498 renal
A549 NSCLC = test system: A549 NSCLC
ACHN renal = test system: ACHN renal
BT-549 breast = test system: BT-549 breast
CAKI-1 renal = test system: CAKI-1 renal
CCRF-CEM leukemia = test system: CCRF-CEM leukemia
COLO 205 colon = test system: COLO 205 colon
DU-145 prostate = test system: DU-145 prostate
EKVX NSCLC = test system: EKVX NSCLC
HCC-2998 colon = test system: HCC-2998 colon
HCT-116 colon = test system: HCT-116 colon
HCT-15 colon = test system: HCT-15 colon
HL-60(TB) leukemia = test system: HL-60(TB) leukemia
HOP-62 NSCLC = test system: HOP-62 NSCLC
HOP-92 NSCLC = test system: HOP-92 NSCLC
HS 578T breast = test system: HS 578T breast
HT29 colon = test system: HT29 colon
IGROV1 ovarian = test system: IGROV1 ovarian
K-562 leukemia = test system: K-562 leukemia
KM12 colon = test system: KM12 colon
LOX IMVI melanoma = test system: LOX IMVI melanoma
M14 melanoma = test system: M14 melanoma
MALME-3M melanoma = test system: MALME-3M melanoma
MCF7 breast = test system: MCF7 breast
MDA-MB-231 breast = test system: MDA-MB-231 breast
MDA-MB-435 = test system: MDA-MB-435
MDA-MB-468 breast = test system: MDA-MB-468 breast
MOLT-4 leukemia = test system: MOLT-4 leukemia
NCI-H226 lung = test system: NCI-H226 lung
NCI-H23 lung = test system: NCI-H23 lung
NCI-H460 lung = test system: NCI-H460 lung
NCI-H522 lung = test system: NCI-H522 lung
OVCAR-3 ovarian = test system: OVCAR-3 ovarian
OVCAR-4 ovarian = test system: OVCAR-4 ovarian
OVCAR-5 ovarian = test system: OVCAR-5 ovarian
OVCAR-8 ovarian = test system: OVCAR-8 ovarian
PC-3 prostate = test system: PC-3 prostate
RPMI-8226 leukemia = test system: RPMI-8226 leukemia
RXF 393 renal = test system: RXF 393 renal
SF-268 CNS = test system: SF-268 CNS
SF-295 CNS = test system: SF-295 CNS
SF-539 CNS = test system: SF-539 CNS
SK-MEL-2 melanoma = test system: SK-MEL-2 melanoma
SK-MEL-28 melanoma = test system: SK-MEL-28 melanoma
SK-MEL-5 melanoma = test system: SK-MEL-5 melanoma
SK-OV-3 ovarian = test system: SK-OV-3 ovarian
SN12C renal = test system: SN12C renal
SNB-19 CNS = test system: SNB-19 CNS
SNB-75 CNS = test system: SNB-75 CNS
SR leukemia = test system: SR leukemia
SW-620 colon = test system: SW-620 colon
T-47D breast = test system: T-47D breast
TK-10 renal = test system: TK-10 renal
U251 CNS = test system: U251 CNS
UACC-257 melanoma = test system: UACC-257 melanoma
UACC-62 melanoma = test system: UACC-62 melanoma
UO-31 renal = test system: UO-31 renal

## O=C1NC(=NC23CC4CC(CC(C4)C2)C3)N/C1=C\c1ccc2ncccc2c1
786-0 renal
  GI50: 8.95 µM
  TGI: 45 µM
A498 renal
  GI50: 1.12 µM
  TGI: > 100 µM
A549 NSCLC
  GI50: 4.09 µM
  TGI: 18.6 µM
ACHN renal
  GI50: 4.09 µM
  TGI: 26.2 µM
BT-549 breast
  GI50: 4.39 µM
  TGI: 41.9 µM
CAKI-1 renal
  GI50: 4.15 µM
  TGI: 34.7 µM
CCRF-CEM leukemia
  GI50: 3.22 µM
  TGI: 19.1 µM
COLO 205 colon
  GI50: 5.58 µM
  TGI: > 100 µM
DU-145 prostate
  GI50: 6.03 µM
  TGI: > 100 µM
EKVX NSCLC
  GI50: 8.33 µM
  TGI: > 100 µM
HCC-2998 colon
  GI50: 7.5 µM
  TGI: > 100 µM
HCT-116 colon
  GI50: 3.41 µM
  TGI: 16 µM
HCT-15 colon
  GI50: 2.8 µM
  TGI: 22.7 µM
HL-60(TB) leukemia
  GI50: 3.09 µM
  TGI: 27.3 µM
HOP-62 NSCLC
  GI50: 6.56 µM
  TGI: > 100 µM
HOP-92 NSCLC
  GI50: 25.9 µM
  TGI: > 100 µM
HS 578T breast
  GI50: 2.9 µM
  TGI: 34.3 µM
HT29 colon
  GI50: 22.8 µM
  TGI: > 100 µM
IGROV1 ovarian
  GI50: 6.43 µM
  TGI: > 100 µM
K-562 leukemia
  GI50: 3.08 µM
  TGI: > 100 µM
KM12 colon
  GI50: 11 µM
  TGI: > 100 µM
LOX IMVI melanoma
  GI50: 7.86 µM
  TGI: 29.5 µM
M14 melanoma
  GI50: 6.07 µM
  TGI: > 100 µM
MALME-3M melanoma
  GI50: 28.6 µM
  TGI: 94.9 µM
MCF7 breast
  GI50: 6.59 µM
  TGI: > 100 µM
MDA-MB-231 breast
  GI50: 16.9 µM
  TGI: 64.7 µM
MDA-MB-435
  GI50: 5.53 µM
  TGI: > 100 µM
MDA-MB-468 breast
  GI50: 2.11 µM
  TGI: > 100 µM
MOLT-4 leukemia
  GI50: 3.95 µM
  TGI: 26 µM
NCI-H226 lung
  GI50: 4.91 µM
  TGI: 42.1 µM
NCI-H23 lung
  GI50: 4.98 µM
  TGI: > 100 µM
NCI-H460 lung
  GI50: 3.38 µM
  TGI: 15.2 µM
NCI-H522 lung
  GI50: 1.97 µM
  TGI: 30.8 µM
OVCAR-3 ovarian
  GI50: 2.86 µM
  TGI: 29.7 µM
OVCAR-4 ovarian
  GI50: 16.3 µM
  TGI: 80.8 µM
OVCAR-5 ovarian
  GI50: 64.4 µM
  TGI: > 100 µM
OVCAR-8 ovarian
  GI50: 8 µM
  TGI: 33.2 µM
PC-3 prostate
  GI50: 15 µM
  TGI: 64.2 µM
RPMI-8226 leukemia
  GI50: 6.82 µM
  TGI: 51.2 µM
RXF 393 renal
  GI50: 3.45 µM
  TGI: 28.1 µM
SF-268 CNS
  GI50: 8.17 µM
  TGI: > 100 µM
SF-295 CNS
  GI50: 7.56 µM
  TGI: 64.9 µM
SF-539 CNS
  GI50: 1.18 µM
  TGI: > 100 µM
SK-MEL-2 melanoma
  GI50: 2.35 µM
  TGI: 10 µM
SK-MEL-28 melanoma
  GI50: 12.5 µM
  TGI: > 100 µM
SK-MEL-5 melanoma
  GI50: 12.4 µM
  TGI: > 100 µM
SK-OV-3 ovarian
  GI50: 3.59 µM
  TGI: 35.2 µM
SN12C renal
  GI50: 5.17 µM
  TGI: > 100 µM
SNB-19 CNS
  GI50: 11.7 µM
  TGI: > 100 µM
SNB-75 CNS
  GI50: 0.218 µM
  TGI: 26.6 µM
SR leukemia
  GI50: 2.33 µM
  TGI: 12.3 µM
SW-620 colon
  GI50: 3.95 µM
  TGI: > 100 µM
T-47D breast
  GI50: 19.4 µM
  TGI: > 100 µM
TK-10 renal
  GI50: 6.87 µM
  TGI: 60.7 µM
U251 CNS
  GI50: 10.2 µM
  TGI: 26.8 µM
UACC-257 melanoma
  GI50: 66.1 µM
  TGI: > 100 µM
UACC-62 melanoma
  GI50: 40.2 µM
  TGI: > 100 µM
UO-31 renal
  GI50: 5.03 µM
  TGI: > 100 µM

## CC[C@]12C=CCN3CC[C@]4(C(=C(C(=O)OC)C1)Nc1ccccc14)[C@@H]32
MDA-MB-468 breast
  GI50: 3.4 µM
  TGI: 15 µM

## O=[N+]([O-])c1ccc([I+]c2ccccc2)cc1
MDA-MB-468 breast
  GI50: 1.25 µM
  TGI: 4.13 µM

## CCOC(=O)/C(=C/c1c(-c2ccccc2)[nH]c2ccccc12)C(=O)c1ccc(Cl)cc1
MDA-MB-468 breast
  GI50: 4.36 µM
  TGI: > 100 µM
